Data set [1] deals with T1, estrogen receptor (Homo sapiens, UniProt P03372).
T1 sequence (P03372 1-595): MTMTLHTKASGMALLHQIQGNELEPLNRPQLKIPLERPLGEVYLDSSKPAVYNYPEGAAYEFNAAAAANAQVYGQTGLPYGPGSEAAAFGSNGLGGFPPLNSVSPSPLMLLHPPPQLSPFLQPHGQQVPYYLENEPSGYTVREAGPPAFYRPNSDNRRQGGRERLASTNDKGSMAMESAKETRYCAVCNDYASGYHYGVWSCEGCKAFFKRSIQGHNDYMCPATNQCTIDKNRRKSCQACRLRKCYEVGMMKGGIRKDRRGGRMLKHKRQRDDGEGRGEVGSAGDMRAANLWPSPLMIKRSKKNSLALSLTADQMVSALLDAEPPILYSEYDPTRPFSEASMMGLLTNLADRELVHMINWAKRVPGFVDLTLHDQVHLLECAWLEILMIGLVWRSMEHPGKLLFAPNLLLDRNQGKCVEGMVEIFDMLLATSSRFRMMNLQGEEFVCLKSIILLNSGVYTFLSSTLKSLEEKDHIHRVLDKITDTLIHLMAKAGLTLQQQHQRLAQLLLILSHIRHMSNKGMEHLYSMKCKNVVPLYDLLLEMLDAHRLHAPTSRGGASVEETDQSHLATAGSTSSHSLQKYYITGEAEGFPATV
Briefly: Transfection Assay. It is filed as cell-based.

The target of data set [2] is T2, estrogen receptor (ER) (Homo sapiens, UniProt P03372).
T2 construct: expressed in transfected cells; host or cells: CHO cells (ribosome-free cytosol)
T2 sequence (P03372 1-595): T1 sequence (P03372 1-595)
The data set is described as follows: Estrogen Receptor Binding/Competition Assay ([3H]17β-estradiol displacement).

Molecule `Cc1c(-c2ccc(O)cc2)n(C(=O)c2ccc(OCCN3CCCCC3)cc2)c2ccc(O)cc12` [Example No. 2, [5-Hydroxy-2-(4-hydroxy-phenyl)-3-methyl-indol-1-yl][4-(2-piperidin-1-yl-ethoxy)-phenyl]-methanone] gave a melting point of 127 to 130 °C. Moreover, the “Transfection Assay % Control” value in data set [1] (Concentration 1 × 10^−6 M + 1 nM estradiol) is given as 13%. Besides, the “Transfection Assay % Control” value in data set [1] (Concentration 1 × 10^−6 M, compound alone) came to 0%. In data set [2], this molecule registered an IC50 of 200 nM.

Turning to `Cc1c(-c2ccc(OCc3ccccc3)cc2)n(C(=O)c2ccc(OCCN3CCCCC3)cc2)c2ccc(OCc3ccccc3)cc12` [compound 1, [5-Benzyloxy-2-(4-benzyloxy-phenyl)-3-methyl-indol-1-yl]-[4-(2-piperidin-1-yl-ethoxy)-phenyl]-methanone], the melting point lay in the range of 48 to 51 °C.

As usually defined, the IC50 is the concentration at which inhibition is half-maximal. As usually defined, the melting point is the temperature, or range, at which the solid turns liquid.

For the origin of these results see patent US6380185B1, “N-substituted benzoyl indoles as estrogenic agents” (American Home Products Corporation, priority 1999, dated 2002).
